Measured values reported in the supplement of paper PMC10307832.

Experiments:
Test in all cases: relative viability (nuclei count vs DMSO), 5 days (fraction); higher = more cells survive
[1] = compound: COc1cc2nccc(Oc3ccc(NC(=O)C4(C(=O)Nc5ccc(F)cc5)CC4)cc3)c2cc1OC [Cabozantinib] + CS(=O)(=O)N1CCN(Cc2cc3nc(-c4cccc5[nH]ncc45)nc(N4CCOCC4)c3s2)CC1 [Pictilisib] (partner 1 µM)
Summary of the method: (§1)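 Relative viability was taken as the ratio of nuclei in treated wells to nuclei in vehicle wells. Lung cancer cell lines in 1536-well plates received compounds by pin tool one day after seeding, either one drug alone or a fixed anchor-drug dose plus five library-drug doses (not always all listed) in √10 steps. Nuclei were counted on 4× images after 5 days of treatment, and values are medians of duplicate plates.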

[2] = compound: O[C@@H](COc1cccc2ncccc12)CN1CCN([C@@H]2c3ccccc3[C@@H]3[C@H](c4ccccc42)C3(F)F)CC1 [Zosuquidar] + CC(=O)Nc1cccc(-n2c(=O)n(C3CC3)c(=O)c3c(Nc4ccc(I)cc4F)n(C)c(=O)c(C)c32)c1 [Trametinib] (partner 0.02 µM)
Summary of the method: as §1

[3] = compound: C1=CC(=CC=C1NC(=S)NNC2=C(C=C(C=C2[N+](=O)[O-])C(F)(F)F)[N+](=O)[O-])F [Kobe2602] + O=C(c1cc(Cc2n[nH]c(=O)c3ccccc23)ccc1F)N1CCN(C(=O)C2CC2)CC1 [Olaparib] (partner 8 µM)
Summary of the method: as §1

[4] = compound: COc1cc2nccc(Oc3ccc(NC(=O)C4(C(=O)Nc5ccc(F)cc5)CC4)cc3)c2cc1OC [Cabozantinib] + Nc1nc2[nH]cc(CCc3ccc(C(=O)N[C@@H](CCC(=O)O)C(=O)O)cc3)c2c(=O)[nH]1 [Pemetrexed] (partner 0.2 µM)
Summary of the method: as §1

Cell Line	relative viability ([1]; first compound 0.02 µM)	relative viability ([1]; first compound 0.06325 µM)	relative viability ([1]; first compound 0.2 µM)	relative viability ([1]; first compound 0.6325 µM)	relative viability ([1]; first compound 2 µM)	relative viability ([2]; first compound 0.01 µM)	relative viability ([2]; first compound 0.03162 µM)	relative viability ([2]; first compound 0.1 µM)	relative viability ([2]; first compound 0.3162 µM)	relative viability ([2]; first compound 1 µM)	relative viability ([3]; first compound 0.2 µM)	relative viability ([3]; first compound 0.6325 µM)	relative viability ([3]; first compound 2 µM)	relative viability ([3]; first compound 6.325 µM)	relative viability ([3]; first compound 20 µM)	relative viability ([4]; first compound 0.02 µM)	relative viability ([4]; first compound 0.06325 µM)	relative viability ([4]; first compound 0.2 µM)	relative viability ([4]; first compound 0.6325 µM)	relative viability ([4]; first compound 2 µM)
NCI-H1437	0.382	0.474	0.486	0.471	0.429	0.508	0.587	0.507	0.762	0.533	0.666	0.632	0.6	0.562	0.475	0.307	0.35	0.316	0.307	0.256
EKVX	0.483	0.448	0.344	0.418	0.367	0.33	0.415		0.359	0.335	0.749	0.792	0.864	0.786	0.808	0.376	0.477	0.352	0.467	0.461
NCI-H596	0.389	0.408	0.388	0.27	0.374	0.762	1	0.857	0.776	0.79	0.758	0.661	0.718	0.718	0.799	0.485	0.525	0.487	0.52	0.54
NCI-H1993	0.842	0.804	0.987	0.811	0.878	0.483	0.5		0.591	0.508	0.853	1.07	0.922	0.918	1.26	0.486	0.507	0.484	0.561	0.662
HCC-78	0.178	0.228	0.174	0.177	0.192	0.799			1	0.759	0.852	0.809	0.904	0.591	0.907		0.941	0.908	0.926	0.89
NCI-H2087	1.01	0.976	0.906	1.01	0.854	0.188	0.192	0.167	0.224	0.196	0.564	0.696	0.705	0.639	0.637	0.612	0.711	0.614	0.752	0.665
H3255	0.473	0.572		0.466	0.48	0.58	0.581	0.525	0.638	0.632	0.561	0.562	0.515	0.532	0.559	0.52	0.646		0.57	0.575
NCI-H2126	0.442	0.52	0.465	0.544	0.547	0.505	0.577	0.536	0.573	0.599	0.868	0.892	0.905	0.929	0.926	0.59	0.666	0.689	0.658	0.704
LC-2-ad	0.31	0.402	0.279	0.319	0.177	0.91	0.901	0.812	0.92	0.911	0.693	0.683	0.708	0.736	0.682	0.279	0.285	0.271	0.278	0.253
SW 1573	0.483	0.573	0.543	0.411	0.449	0.613	0.605	0.549	0.628	0.544	0.477	0.416	0.306	0.466	0.152	0.905	0.815	0.924	0.951	0.763
EBC-1	0.29	0.193	0.169	0.166	0.107						0.687	0.684	0.69	0.647	0.759					
HCC-15	0.785	0.762	0.69	0.719	0.799	0.393	0.374	0.345	0.397	0.38	0.691	0.727	0.609	0.742	0.837	0.231	0.228	0.226	0.223	0.215
NCI-H1650	0.515	0.709	0.606	0.536	0.532	0.488	0.577	0.702	0.661	0.601	0.844	0.891	0.819	0.868	0.8	0.441	0.435	0.337	0.355	0.374
COR-L 105	0.343	0.385		0.43	0.37	0.459	0.435	0.408	0.266	0.481	0.658	0.718	0.425	0.588	0.686	1.1	1.19	0.9	0.999	1.02
